For one test, the system named is hybridoma D-234. Put plainly: Effect of NH4Cl on D-234 growth and IgM production. The conditions noted are these: 10 mM NH4Cl. It counts as cell-based, human/human/murine trioma. How it is done: The hybridoma D-234 was grown in HL-1 serum-free medium supplemented with 0.1% Pluronic polyol F-68, 10 mM glutamine and 10 mM NH4Cl. A control was also run without NH4Cl. One hundred ml cultures in 250 ml shake flasks were inoculated at an initial density of 1×10^5 viable cells/ml (91% viability).

For a further test, the system named is D-234. Put plainly: Effect of Na lactate on D-234 growth and IgM production. The class given is cell-based, human/human/murine trioma. The procedure: Approximately 1×10^5 cells/ml of D-234 were grown in 250 ml shake flasks (agitated at 100 rpm) in HL-1 medium containing 0.1% Pluronic polyol F-68 and 8 mM glutamine. A 1 M stock solution of sodium lactate (pH 7.4) in HL-1 was added to the medium. A preliminary screen of the effect of a broad range of sodium lactate concentrations (0–100 mM) on D-234 growth and IgM production was run. […] Cell densities at day four were reduced at all levels of lactate tested with a critical drop between 40 and 60 mM.

A further test has as its system 454A12 hybridomas. The experiment in a line: Effect of sodium chloride on IgG production by hybridoma 454A12. It counts as cell-based, murine. The procedure: In another experiment, the 454A12 hybridomas were grown in shake flasks with commercially available HL-1 medium (Ventrex) supplemented with 8 mM glutamine. Osmolality of the standard (control) HL-1 medium was 300 mOsmol/kg. In the test sample, the osmolality was increased to 400 mOsmol/kg using sodium chloride. The result of solute stress in the test sample was evidenced by a 50% decrease in maximum cell density. In the stressed condition, the specific IgG production rate per cell increased throughout the culture period The increase in specific productivity was greatest during the post exponential phase period of the culture when specific productivity was more than 60% higher under the stressed condition (FIG. 3).

Turning to `Cl.N` [NH4Cl, ammonium chloride], in the test with hybridoma D-234, the “increase in the production of IgM” value was found to be 2 fold. For the same compound, in the test with hybridoma D-234 (control 2.3×10^6/ml), the “maximum total cell density” value was determined as 1.1e+06 mL⁻¹.
As for `CC(O)C(=O)[O-].[Na+]` (stereo not shown) [Na Lactate, sodium lactate], the “Total Cell Density” value in the test with D-234 (20 mM initial lactate, Day 2, 0 mM 4.7) was 5.6 1 × 10^5/ml; with D-234 (20 mM initial lactate, Day 4, 0 mM 21.0) it was 15.0 1 × 10^5/ml; in the test with D-234 (40 mM initial lactate, Day 2), 5.1 1 × 10^5/ml; with D-234 (40 mM initial lactate, Day 4), 12.9 1 × 10^5/ml; with D-234 (60 mM initial lactate, Day 2), 2.2 1 × 10^5/ml; in the test with D-234 (60 mM initial lactate, Day 4), 4.1 1 × 10^5/ml. Further, the “Total Cell Density” value in the test with D-234 (80 mM initial lactate, Day 2) is reported as 2.1 1 × 10^5/ml; in the test with D-234 (80 mM initial lactate, Day 4) it was 2.6 1 × 10^5/ml; in the test on D-234 (100 mM initial lactate, Day 2), 2.2 1 × 10^5/ml; in the test on D-234 (100 mM initial lactate, Day 4), 2.0 1 × 10^5/ml. In addition, the “% Viability” value in the test on D-234 (20 mM initial lactate, Day 2, 0 mM 95) was determined as 96%; in the test on D-234 (20 mM initial lactate, Day 4, 0 mM 90), 92%; with D-234 (40 mM initial lactate, Day 2), 92%; with D-234 (40 mM initial lactate, Day 4) it was 89%; with D-234 (60 mM initial lactate, Day 2), 93%; with D-234 (60 mM initial lactate, Day 4) it was 87%. Besides, the “% Viability” value with D-234 (80 mM initial lactate, Day 2) is 81%; with D-234 (80 mM initial lactate, Day 4), 65%; in the test on D-234 (100 mM initial lactate, Day 2) it was 72%; in the test on D-234 (100 mM initial lactate, Day 4), 50%. For the same compound, the IgM turned out to be 20 µg/mL in the test on D-234 (20 mM initial lactate, Day 4, 0 mM 10); 35 µg/mL with D-234 (20 mM initial lactate, Day 7, 0 mM 24); 22 µg/mL in the test with D-234 (40 mM initial lactate, Day 4); 54 µg/mL with D-234 (40 mM initial lactate, Day 7); 19 µg/mL in the test with D-234 (60 mM initial lactate, Day 4); 61 µg/mL with D-234 (60 mM initial lactate, Day 7, control 24). Moreover, the IgM in the test on D-234 (80 mM initial lactate, Day 4) came to 15 µg/mL; in the test on D-234 (80 mM initial lactate, Day 7), 28 µg/mL; in the test on D-234 (100 mM initial lactate, Day 4), 11 µg/mL; with D-234 (100 mM initial lactate, Day 7), 14 µg/mL. The “cell density as % of the control” value in the test on D-234 (80 mM added lactate) is given as 12%. For the same compound, the “increase in specific (per cell) productivity” value with D-234 (at 60 mM added lactate) is recorded as “up to 14 fold”. The effect on growth entry in the test on D-234 (levels of added lactate above 40 mM, screen 0–100 mM) was “greatly inhibited”.
For `[Cl-].[Na+]` [sodium chloride], the “decrease in maximum cell density” value in the test with 454A12 hybridomas (400 mOsmol/kg using sodium chloride versus 300 mOsmol/kg control) was 50%. The “increase in specific IgG productivity” value in the test with 454A12 hybridomas (400 mOsmol/kg using sodium chloride, post exponential phase period) is listed as “more than 60%”.
